# According to patent US20190166840A1, “SUBSTITUTED PYRAZOLINYL DERIVATIVES, PROCESSES FOR THEIR PREPARATION AND THEIR USE AS HERBICIDES AND/OR PLANT GROWTH REGULATORS” (BAYER CROPSCIENCE AKTIENGESELLSCHAFT, priority 2016, published 2019):
# Experiments:
# [1] = target: T1, photosystem II (PS II) (Spinacia oleracea, UniProt P69560); assay: Activity determination of photosystem II (PS II) in thylakoid membranes, DCPIP reduction; format: biochemical; conditions: spinach thylakoid membranes, DCPIP 120 μM, 10 min at 22° C. with illumination; read-out: pI50 (converted)
# T1 construct: the chloroplasts were osmotically ruptured and the thylakoid membranes were then obtained by centrifugation; from tissue; host or cells: spinach leaves (thylakoid membrane preparation)
# Method: Measurement of PS II Activity in Thylakoid Membranes
# 1. Preparation of the Thylakoid Membranes
# Cooled fresh spinach leaves were comminuted and homogenized in 50 mM phosphate buffer, pH 6.8, 10 mM KCl, 0.34 M sucrose (sucrose buffer) (mixer, 1 g of plant material/ml). The homogenate was subsequently filtered through 4 layers of Miracloth and the chloroplasts were obtained by centrifugation: • 10 minutes (min) of centrifugation at 4400×g (4° C.). • The sediment was suspended in 25 ml of sucrose buffer and centrifuged for another 10 min at 4400×g (4° C.). • The sediment was then suspended in 40 ml of 50 mM phosphate buffer, pH 6.8, 10 mM KCl, without sucrose. • In this step, the chloroplasts were osmotically ruptured and the thylakoid membranes were then obtained by centrifugation (10 min, 4400×g, 4° C.). The membrane sediment was finally suspended in about 20 ml of 50 mM phosphate buffer, pH 6.8, 10 mM KCl. • After protein determination and activity determination, the membrane suspension was aliquoted and frozen in liquid nitrogen. The aliquots were stored at −80° C. Under these conditions, the photosystem II preparation is storage-stable for at least three months.
# 2. Activity Determination of the Photosystem II (PS II)
# The electron transfer from PS II to an artificial electronic captor, 2,6-dichlorophenol-indophenol (DCPIP), is measured under the action of light. The concentration of the blue oxidized form of DCPIP can be determined spectraphotometrically at the wavelength l=595 nm. The enzyme-catalyzed reduction of DCPIP results in a colourless leuco form and thus to a decrease of absorption at 595 nm in the reaction batch, which is measured as a function of time.
# The activity determination was carried out in microtiter plates (96 wells) in a reaction volume of 200 μl. 155 μl of dilute membrane suspension in 50 mM phosphate buffer, pH 6.8, 10 mM KCl were initially charged. Depending on the activity of the PS II preparation, the dilution was adjusted such that measurement of the decrease in absorption (λ=595 nm) was linear for at least 10 min.
# Typical dilution series of the test compounds comprised 10 concentration steps in the range between 10^−9and 10^−5 M.
# On each microtiter plate, a known PS II inhibitor, e.g. metribuzin, was used as standard for assessing the quality of the PS II test.
# The reaction was initiated by addition of 40 μl DCPIP solution (600 μM in distilled water); the final concentration of DCPIP was 120 μM.
# Absorption was measured over a period of 10 min at 22° C. and with illumination. For calculating the active compound concentration at which 50% of the enzyme activity is inhibited (IC50), the relative enzymatic activity (in %) was plotted as a function of the logarithm of the active compound concentration.
# [2] = tested on: Veronica persica; assay: Pre-emergence herbicidal action, VERPE; format: in vivo; conditions: application rate 1280 g/ha, scored visually after about 3 weeks
# From the text: Pre-Emergence Herbicidal Action Seeds of mono- and dicotyledonous weed plants or crop plants were placed in sandy loam in wood fibre pots and covered with soil. The formulated compounds of the general formula (I) according to the invention were then applied to the surface of the covering soil in the form of an aqueous suspension or emulsion at an application rate of 600 l of water/ha (converted) with addition of 0.2% wetting agent. After the treatment, the pots were placed in a greenhouse and kept under good growth conditions for the test plants. After about 3 weeks, the effect was scored visually in percent in comparison to untreated controls. For example, 100% activity=the plants have died, 50% herbicidal activity or damage=plants reduced to 50% or plant material reduced by 50%, 0% activity=like control plants. Here, in the biological tests, the compounds of the general formula (I) according to the invention were in each case employed in a formulation, with the numerations of Tables I.1 to I.77 also applying here. Here, the herbicidal action of the compounds of the general formula (I) according to the invention was examined for the following harmful plants: VERPE=Veronica persica The respective herbicidal action was in each case determined at the same point in time after application of the formulation in question, i.e. damage of the harmful plant in question in %. Pre-emergence herbicidal action of the compounds of the general formula (I) according to the invention: […]
SMILES,IC50 [1],"Pre-emergence herbicidal action VERPE, damage of the harmful plant [2]"
CC1=C(C)C(O)N(C2=NN(c3ccccc3)C(C(F)(F)F)C2)C1=O (stereo not drawn) [I.2-1413],5.01 µM,
CC1=C(C)C(O)N(C2=NN(c3ccccn3)C(C)(C)C2)C1=O (stereo not drawn) [I.2-132],,30%
CCC(=O)OC1C(C)=C(Cl)C(=O)N1C1=NN(C)C(c2ccccc2)C1 (stereo not drawn) [I.24-1126],,0%
CCC(=O)OC1C(C)=C(C)C(=O)N1C1=NN(c2ccccc2)C(C(F)(F)F)C1 (stereo not drawn) [I.23-1413],,60%
CCC(=O)OC1C(C)=C(C)C(=O)N1C1=NN(c2ccccn2)C(C)(C)C1 (stereo not drawn) [I.23-132],,60%
CCC(=O)OC1C(C)=C(C)C(=O)N1C1=NN(c2ccccc2)CC1 (stereo not drawn) [I.23-621],,0%
